Laboratory results published in patent US9428500B2, “Alpha-carbolines for the treatment of cancer” (UNIVERSITA' DEGLI STUDI DI MILANO—BICOCCA, priority 2012, dated 2016).

Test system: parental untransformed BaF3 cells
Test: Tritiated thymidine uptake cell proliferation assay, parental BaF3
Format: cell-based
Conditions: 3H-thymidine uptake, 72 h, medium with IL-3

Compound	IC50
62:38 mixture of (E)-6-(4-(4-methylpiperazin-1-yl)phenyl)-4-(1-phenylbut-1-en-2-yl)-9H-pyrido[2,3-b]indole and (E)-6-(4-(4-methylpiperazin-1-yl)phenyl)-4-(1-phenylbut-1-en-1-yl)-9H-pyrido[2,3-b]indole [Example 31]	0.93 µM

Same assay, conditions: Mus musculus, BaF3; 3H-thymidine uptake, 72 h, medium with IL-3

Compound	IC50
CN1CCN(c2ccc(-c3ccc4[nH]c5nccc(Cl)c5c4c3)cc2)CC1 [Example 1, 4-Chloro-6-[4-(4-methylpiperazin-1-yl)-phenyl]-9H-pyrido[2,3-b]indole]	1.4 µM
CN1CCN(c2ccc(-c3ccc4[nH]c5nccc(/C=C/c6ccccc6)c5c4c3)cc2)CC1 [Example 2, (E)-6-[4-(4-Methylpiperazin-1-yl)-phenyl]-4-(2-phenylvinyl)-9H-pyrido[2,3-b]indole]	0.8 µM
C/C(=C\c1ccccc1C(F)(F)F)c1ccnc2[nH]c3ccc(-c4ccc(N5CCN(C)CC5)cc4)cc3c12 [Example 3, (E)-6-[4-(4-Methylpiperazin-1-yl)-phenyl]-4-[1-(2-(trifluoromethyl)phenyl)prop-1-en-2-yl]-9H-pyrido[2,3-b]indole]	2.4 µM
CN1CCN(c2ccc(-c3ccc4[nH]c5nccc(-c6ccc(-c7ccccc7)cc6)c5c4c3)cc2)CC1 [Example 5, 4-Biphenyl-4-yl-6-[4-(4-methylpiperazin-1-yl)-phenyl]-9H-pyrido[2,3-b]indole]	> 25 µM
CN1CCN(c2ccc(-c3ccc4[nH]c5nccc(/C=C/c6cccc(F)c6)c5c4c3)cc2)CC1 [Example 6, (E)-4-[2-(3-Fluorophenyl)vinyl]-6-[4-(4-methylpiperazin-1-yl)-phenyl]-9H-pyrido[2,3-b]indole]	9.5 µM
COc1ccc(/C=C/c2ccnc3[nH]c4ccc(-c5ccc(N6CCN(C)CC6)cc5)cc4c23)cc1 [Example 7, (E)-4-[2-(4-Methoxyphenyl)vinyl]-6-[4-(4-methylpiperazin-1-yl)-phenyl]-9H-pyrido[2,3-b]indole]	4.1 µM
CN1CCN(c2ccc(-c3ccc4[nH]c5nccc(-c6ccc(OCc7ccccc7)cc6)c5c4c3)cc2)CC1 [Example 8, 4-(4-Benzyloxyphenyl)-6-[4-(4-methylpiperazin-1-yl)-phenyl]-9H-pyrido[2,3-b]indole]	5 µM
CN1CCN(c2ccc(-c3ccc4[nH]c5nccc(-c6ccc(COc7cccc(C(F)(F)F)c7)cc6)c5c4c3)cc2)CC1 [Example 9, 6-[4-(4-Methylpiperazin-1-yl)-phenyl]-4-[4-(3-trifluoromethyl-phenoxymethyl)-phenyl]-9H-pyrido[2,3-b]indole]	25 µM
COc1ccccc1/C=C/c1ccnc2[nH]c3ccc(-c4ccc(N5CCN(C)CC5)cc4)cc3c12 [Example 10, (E)-4-(2-(2-Methoxyphenyl)vinyl)-6-(4-(4-methylpiperazin-1-yl)phenyl)-9H-pyrido[2,3-b]indole]	2.1 µM
CN1CCN(c2ccc(-c3ccc4[nH]c5nccc(/C=C/c6ccccc6C(F)(F)F)c5c4c3)cc2)CC1 [Example 11, (E)-6-(4-(4-Methylpiperazin-1-yl)phenyl)-4-(2-(2-(trifluoromethyl)phenyl)vinyl)-9H-pyrido[2,3-b]indole]	1.7 µM
Cc1cc(OCc2ccc(-c3ccnc4[nH]c5ccc(-c6ccc(N7CCN(C)CC7)cc6)cc5c34)cc2)ccc1Cl [Example 12, 4-[4-(4-Chloro-3-methyl-phenoxymethyl)-phenyl]-6-[4-(4-methylpiperazin-1-yl)-phenyl]-9H-pyrido[2,3-b]indole]	> 50 µM
CN1CCN(c2ccc(-c3ccc4[nH]c5nccc(/C=C/c6ccc(F)cc6)c5c4c3)cc2)CC1 [Example 13, (E)-4-(2-(4-Fluorophenyl)vinyl)-6-(4-(4-methylpiperazin-1-yl)phenyl)-9H-pyrido[2,3-b]indole]	7.6 µM
CN1CCN(c2ccc(-c3ccc4[nH]c5nccc(/C=C/c6ccc(C(F)(F)F)cc6)c5c4c3)cc2)CC1 [Example 14, (E)-6-(4-(4-Methylpiperazin-1-yl)phenyl)-4-(2-(4-(trifluoromethyl)phenyl)vinyl)-9H-pyrido[2,3-b]indole]	> 25 µM
CN1CCN(c2ccc(-c3ccc4[nH]c5nccc(-c6ccc(-c7ccccc7)cc6F)c5c4c3)cc2)CC1 [Example 15, 4-(3-Fluoro-biphenyl-4-yl)-6-[4-(4-methylpiperazin-1-yl)-phenyl]-9H-pyrido[2,3-b]indole]	6.3 µM
CN1CCN(c2ccc(-c3ccc4[nH]c5nccc(-c6cccc(-c7ccccc7)c6)c5c4c3)cc2)CC1 [Example 17, 4-Biphenyl-3-yl-6-[4-(4-methylpiperazin-1-yl)-phenyl]-9H-pyrido[2,3-b]indole]	2.7 µM
CN1CCN(c2ccc(-c3ccc4[nH]c5nccc(/C=C/c6ccccc6F)c5c4c3)cc2)CC1 [Example 18, (E)-4-(2-(2-Fluorophenyl)vinyl)-6-(4-(4-methylpiperazin-1-yl)phenyl)-9H-pyrido[2,3-b]indole]	5.1 µM
CN1CCN(c2ccc(-c3ccc4[nH]c5nccc(/C=C/c6ccccc6Cl)c5c4c3)cc2)CC1 [Example 19, (E)-4-(2-(2-Chlorophenyl)vinyl)-6-(4-(4-methylpiperazin-1-yl)phenyl)-9H-pyrido[2,3-b]indole]	2 µM
CN1CCC(N2CCN(c3ccc(-c4ccc5[nH]c6nccc(-c7ccc(Cc8ccccc8)cc7)c6c5c4)cc3)CC2)CC1 [Example 21, 4-(4-Benzylphenyl)-6-(4-(4-(1-methylpiperidin-4-yl)piperazin-1-yl)phenyl)-9H-pyrido[2,3-b]indole]	3.7 µM
CN1CCC(N2CCN(c3ccc(-c4ccc5[nH]c6nccc(/C=C/c7ccccc7C(F)(F)F)c6c5c4)cc3)CC2)CC1 [Example 22, (E)-6-(4-(4-(1-Methylpiperidin-4-yl)piperazin-1-yl)phenyl)-4-(2-(2-(trifluoromethyl)phenyl)vinyl)-9H-pyrido[2,3-b]indole]	3.9 µM
CN1CCN(c2ccc(-c3ccc4[nH]c5nccc(-c6ccc(C(=O)c7ccccc7)cc6)c5c4c3)cc2)CC1 [Example 23, (4-{6-[4-(4-Methylpiperazin-1-yl)-phenyl]-9H-pyrido[2,3-b]indol-4-yl}-phenyl)-phenyl-methanone]	2.3 µM
CN1CCN(c2ccc(-c3ccc4[nH]c5nccc(-c6ccc(-c7cccc8ccccc78)cc6)c5c4c3)cc2)CC1 [Example 24, 6-[4-(4-Methylpiperazin-1-yl)-phenyl]-4-(4-naphthalen-1-yl-phenyl)-9H-pyrido[2,3-b]indole]	18 µM
CN1CCN(c2ccc(-c3ccc4[nH]c5nccc(/C(=C/c6ccccc6)c6ccccc6)c5c4c3)cc2)CC1 [Example 25, (E)-4-(1,2-Diphenylvinyl)-6-[4-(4-methylpiperazin-1-yl)-phenyl]-9H-pyrido[2,3-b]indole]	7.5 µM
COc1ccc(Cc2ccc(-c3ccnc4[nH]c5ccc(-c6ccc(N7CCN(C)CC7)cc6)cc5c34)cc2)c(OC)c1 [Example 26, 4-[4-(2,4-Dimethoxybenzyl)phenyl]-6-[4-(4-methylpiperazin-1-yl)-phenyl]-9H-pyrido[2,3-b]indole]	0.63 µM
COc1ccccc1/C=C(\C)c1ccnc2[nH]c3ccc(-c4ccc(N5CCN(C)CC5)cc4)cc3c12 [Example 27, (E)-4-[1-(2-Methoxyphenyl)-prop-1-en-2-yl]-6-[4-(4-methylpiperazin-1-yl)-phenyl]-9H-pyrido[2,3-b]indole]	2.4 µM
